Like-named read-outs stand apart in the source and are kept apart here. A value given as a limit tells only on which side of the number the result lay.

As usually defined, the IC50 is the midpoint of a concentration-inhibition curve.

One assay relates to Escherichia coli. As to the kind of experiment: Susceptibility testing (MIC) Assay 2, broth microdilution. It is filed as cell-based. (In general: Broth dilution looks for growth in wells or tubes with falling amounts of substance.)
For a further assay, the system named is Haemophilus influenzae. Described as above. It is filed as cell-based.
Another assay deals with Pseudomonas aeruginosa. The description is as above. It is filed as cell-based. The conditions noted are these: PAO1, read-out: Pae MIC.
The next assay concerns Klebsiella pneumoniae. The description is as above. It is filed as cell-based.
The subject of the next assay is Streptococcus pyogenes. Kind of assay: Susceptibility testing (MIC) Assay 1, broth microdilution. It is filed as cell-based. The following applies: Streptococcus pyogenes, in vivo strain, read-out: Spy MIC.
Another assay concerns Staphylococcus aureus. Described as above. It is filed as cell-based. The following applies: Staphylococcus aureus.
Another assay deals with Streptococcus pneumoniae. Described as above. It is filed as cell-based.
The target of assay [1] is Escherichia coli DNA gyrase A/B tetramer (Escherichia coli (strain K12), UniProt P0AES4+P0AES6). Kind of assay: DNA gyrase supercoiling activity fluorescence polarisation assay. It is filed as biochemical. The conditions noted are these: Eco Gyr FP Mean IC50, E. coli DNA gyrase supercoiling, 0.3 mM ATP. The essentials: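 IC50 derived by nonlinear regression from BODIPY-FL fluorescence anisotropy, read 60 min after quenching with labelled triplex-forming probe (pH 3.5). Reaction: 5 nM gyrase tetramer, 130 micrograms/mL relaxed plasmid, 0.3 mM ATP, 4 mM MgCl2, pH 7.5, typically 30 min at ambient temperature, 5-10 compound concentrations.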
(In general: In fluorescence polarisation assays a small probe gives low polarisation when free and higher when bound to something large.)

Setting [2] is: ATCC51907, Haemophilus influenzae, ATCC 51907, in vivo strain, read-out: Hin MIC.
Setting [3] is: clinical isolate, mucoid, read-out: Kpn MIC.
[4] abbreviates: Staphylococcus aureus in vivo strain, MSQS, read-out: Sau(d) MIC.
Setting [5] is: in vivo strain, MRQR, read-out: Sau(e) MIC.
[6] abbreviates: in vivo strain (footnote b), read-out: Spn(b) MIC.
Setting [7] is: in vivo strain (footnote c), read-out: Spn(c) MIC.

For the compound `C[C@@H]1CN2c3c(cc4c(N5C(=O)OC[C@@H]5CS(C)(=O)=O)noc4c3F)CC3(C(=O)NC(=O)NC3=O)[C@H]2[C@H](C)O1` [Example 46], the MIC is 100 µM in the assay with Escherichia coli (K12, read-out: Eco MIC); 0.78 µM with Haemophilus influenzae (setting [2]); above 200 µM in the assay with Pseudomonas aeruginosa; above 200 µM in the assay with Klebsiella pneumoniae (setting [3]); 0.39 µM in the assay with Streptococcus pyogenes (Streptococcus pyrgenes); 1.6 µM in the assay with Staphylococcus aureus (setting [4]). The MIC in the assay on Staphylococcus aureus (setting [5]) stood at 6.2 µM; in the assay on Staphylococcus aureus (serum, read-out: Sau(f) MIC), 1.6 µM; in the assay on Streptococcus pneumoniae (setting [6]) it was 0.78 µM; in the assay with Streptococcus pneumoniae (setting [7]) it was 1.6 µM. In assay [1], this compound had an IC50 of 170 nM.
As to `C[C@@H]1CN2c3c(cc4c(N5C(=O)OC[C@@H]5Cc5ccccc5)noc4c3F)CC3(C(=O)NC(=O)NC3=O)[C@H]2[C@H](C)O1` [Example 11, (2R,4S,4aS)-8-[(4S)-4-Benzyl-2-oxo-1,3-oxazolidin-3-yl]-11-fluoro-2,4-dimethyl-1,2,4,4a-tetrahydro-2′H,6H-spiro[1,4-oxazino[4,3-a][1,2]oxazolo[4,5-g]quinoline-5,5′-pyrimidine]-2′,4′,6′(1′H,3′H)-trione], the MIC is 50 µM in the assay with Escherichia coli (K12, read-out: Eco MIC); 3.1 µM in the assay on Haemophilus influenzae (setting [2]); above 200 µM in the assay with Pseudomonas aeruginosa; above 200 µM in the assay on Klebsiella pneumoniae (setting [3]); 3.1 µM in the assay with Streptococcus pyogenes (Streptococcus pyrgenes); 1.6 µM with Staphylococcus aureus (setting [4]). Moreover, the MIC with Staphylococcus aureus (setting [5]) is 1.6 µM; with Staphylococcus aureus (serum, read-out: Sau(f) MIC), 25 µM; in the assay on Streptococcus pneumoniae (setting [6]), 3.1 µM; in the assay on Streptococcus pneumoniae (setting [7]), 3.1 µM. Besides, the IC50 in assay [1] stood at 1200 nM.
Consider `C[C@@H]1CN2c3c(cc4c(N5C[C@@H](CF)OC5=O)noc4c3Cl)CC3(C(=O)NC(=O)NC3=O)[C@H]2[C@H](C)O1` [Example 32, (2R,4S,4aS)-11-Chloro-8-((S)-5-(fluoromethyl)-2-oxooxazolidin-3-yl)-2,4-dimethyl-2,4,4a,6-tetrahydro-1H,1′H-spiro[isoxazolo[4,5-g][1,4]oxazino[4,3-a]quinoline-5,5′-pyrimidine]-2′,4′,6′(3′H)-trione], for which the MIC in the assay on Escherichia coli (K12, read-out: Eco MIC) is 1.5 µM; in the assay on Haemophilus influenzae (setting [2]), 0.27 µM; in the assay on Pseudomonas aeruginosa, 200 µM; in the assay on Klebsiella pneumoniae (setting [3]), 200 µM; with Streptococcus pyogenes (Streptococcus pyrgenes), below 0.2 µM; in the assay with Staphylococcus aureus (setting [4]), below 0.2 µM. Further, the MIC in the assay on Staphylococcus aureus (setting [5]) came out at 0.78 µM; in the assay on Staphylococcus aureus (serum, read-out: Sau(f) MIC) it was 0.39 µM; in the assay on Streptococcus pneumoniae (setting [6]) it was 0.39 µM; in the assay on Streptococcus pneumoniae (setting [7]), 0.39 µM. In assay [1], this compound showed an IC50 of 630 nM.
Take `COC[C@@H]1[C@@H](C)OC(=O)N1c1noc2c(F)c3c(cc12)CC1(C(=O)NC(=O)NC1=O)[C@H]1[C@H](C)O[C@H](C)CN31` [Example 80, (2R,4S,4aS)-11-fluoro-8-((4R,5R)-4-(methoxymethyl)-5-methyl-2-oxooxazolidin-3-yl)-2,4-dimethyl-2,4,4a,6-tetrahydro-1H,1′H-spiro[isoxazolo[4,5-g][1,4]oxazino[4,3-a]quinoline-5,5′-pyrimidine]-2′,4′,6′(3′H)-trione]: the MIC in the assay on Escherichia coli (ATCC25922, Escherichia coli, in vivo strain, ATCC 25922, read-out: Eco(b) MIC) was above 64 µg/mL; in the assay with Escherichia coli (ATCC35218, Escherichia coli, ATCC 35218, read-out: Eco(c) MIC) it was above 64 µg/mL; in the assay on Haemophilus influenzae (ATCC49247, Haemophilus influenzae, ATCC 49247, read-out: Hin MIC) it was 1 µg/mL; in the assay with Pseudomonas aeruginosa (Pseudomonoas aeruginosa), above 64 µg/mL; with Klebsiella pneumoniae (ATCC700603, ATCC 700603, read-out: Kpn(e) MIC), above 64 µg/mL; in the assay on Klebsiella pneumoniae (clinical isolate, mucoid, read-out: Kpn(d) MIC), above 64 µg/mL. The MIC in the assay on Streptococcus pyogenes (Streptococcus pyrogenes) was found to be 16 µg/mL; in the assay on Staphylococcus aureus (ATCC29213, Staphylococcus aureus, in vivo strain, ATCC 29213, read-out: Sau(d) MIC), 16 µg/mL; in the assay with Staphylococcus aureus (MRSA, in vivo strain, MRSA, read-out: Sau(f) MIC) it was 16 µg/mL; in the assay with Staphylococcus aureus (setting [5]) it was 32 µg/mL; in the assay with Streptococcus pneumoniae (ATCC49619, Streptococcus pneumoniae, ATCC 49619, read-out: Spn(c) MIC) it was 32 µg/mL; in the assay with Streptococcus pneumoniae (in vivo strain, read-out: Spn(b) MIC) it was 64 µg/mL. This compound also displayed an IC50 in assay [1] of 170 nM.

For the origin of these results see patent US8889671B2, “Compounds and methods for treating bacterial infections” (AstraZeneca AB, priority 2013, dated 2014).
